{"source": "ChEMBL document CHEMBL4118193", "about": "“1,2,3,4,6-Penta-O-galloyl-β-d-glucose suppresses colon cancer through induction of tumor suppressor” (Bioorg Med Chem Lett, 2018)", "key": {"[1]": {"tested_on": "HT-29", "test": "Cell cycle arrest in human HT-29 cells assessed as accumulation at G0/G1 phase at 5 uM after 48 hrs (reference value: 53.9%)", "type": "functional"}, "[2]": {"tested_on": "HCT-116", "test": "Induction of apoptosis in human HCT116 cells assessed as CDK2 protein level at 5 uM after 48 hrs by Western blot method relative to beta-actin", "type": "functional"}, "[3]": {"tested_on": "HT-29", "test": "Cytotoxicity against human HT-29 cells at 1 to 10 uM after 48 hrs by CytoTox-96 non-radioactive assay", "type": "functional, cell-based"}, "[4]": {"tested_on": "HT-29", "test": "Induction of apoptosis in human HT-29 cells assessed as caspase-3 protein level at 5 uM after 48 hrs by Western blot method relative to beta-actin", "type": "functional"}, "[5]": {"tested_on": "HT-29", "test": "Cell cycle arrest in human HT-29 cells assessed as accumulation at G2/M phase at 1 uM after 48 hrs (reference value: 14.7%)", "type": "functional"}, "[6]": {"tested_on": "HCT-116", "test": "Induction of apoptosis in human HCT116 cells assessed as live cells at 5 uM after 48 hrs by Annexin-V and dead cell assay (reference value: 96.75%)", "type": "functional"}, "[7]": {"tested_on": "HT-29", "test": "Cell cycle arrest in human HT-29 cells assessed as accumulation at S phase at 5 uM after 48 hrs (reference value: 9.7%)", "type": "functional"}, "[8]": {"tested_on": "HT-29", "test": "Induction of apoptosis in human HT-29 cells assessed as in p53 protein level at 5 uM after 48 hrs by Western blot method relative to beta-actin", "type": "functional"}, "[9]": {"tested_on": "HCT-116", "test": "Induction of apoptosis in human HCT116 cells assessed as early apoptotic cells at 1 uM after 48 hrs by Annexin-V and dead cell assay (reference value: 1.70%)", "type": "functional"}, "[10]": {"tested_on": "HT-29", "test": "Induction of apoptosis in human HT-29 cells assessed as Bcl-2 protein level at 1 uM after 48 hrs by Western blot method relative to beta-actin", "type": "functional"}, "[11]": {"tested_on": "HT-29", "test": "Induction of apoptosis in human HT-29 cells assessed as cleaved caspase-3 protein level at 5 uM after 48 hrs by Western blot method relative to caspase-3", "type": "functional"}, "[12]": {"tested_on": "HT-29", "test": "Induction of apoptosis in human HT-29 cells assessed as in p53 protein level at 10 uM after 48 hrs by Western blot method relative to beta-actin", "type": "functional"}, "[13]": {"tested_on": "HCT-116", "test": "Induction of apoptosis in human HCT116 cells assessed as early apoptotic cells at 10 uM after 48 hrs by Annexin-V and dead cell assay (reference value: 1.70%)", "type": "functional"}, "[14]": {"tested_on": "HT-29", "test": "Induction of apoptosis in human HT-29 cells assessed as p21 protein level at 1 uM after 48 hrs by Western blot method relative to beta-actin", "type": "functional"}, "[15]": {"tested_on": "HT-29", "test": "Anticlonogenic activity against human HT-29 cells assessed as inhibition of colony formation after 4 to 5 days by crystal violet staining-based assay", "type": "functional, cell-based"}, "[16]": {"tested_on": "HT-29", "test": "Cell cycle arrest in human HT-29 cells assessed as accumulation at G2/M phase at 5 uM after 48 hrs (reference value: 14.7%)", "type": "functional"}, "[17]": {"tested_on": "HCT-116", "test": "Induction of apoptosis in human HCT116 cells assessed as p53 protein level at 1 uM after 48 hrs by Western blot method relative to beta-actin", "type": "functional"}, "[18]": {"tested_on": "HCT-116", "test": "Cell cycle arrest in human HCT116 cells assessed as accumulation at subG1 phase after 48 hrs", "type": "functional, cell-based"}, "[19]": {"tested_on": "HT-29", "test": "Induction of apoptosis in human HT-29 cells assessed as Bcl-2 protein level at 5 uM after 48 hrs by Western blot method relative to beta-actin", "type": "functional"}, "[20]": {"tested_on": "HT-29", "test": "Cell cycle arrest in human HT-29 cells assessed as accumulation at S phase at 1 uM after 48 hrs (reference value: 9.7%)", "type": "functional"}, "[21]": {"tested_on": "HT-29", "test": "Induction of apoptosis in human HT-29 cells assessed as p53 protein level at 1 uM after 48 hrs by Western blot method relative to beta-actin", "type": "functional"}, "[22]": {"tested_on": "HCT-116", "test": "Induction of apoptosis in human HCT116 cells assessed as cyclin E protein level at 2.5 uM after 48 hrs by Western blot method relative to beta-actin", "type": "functional"}, "[23]": {"tested_on": "HT-29", "test": "Induction of apoptosis in human HT-29 cells assessed as in p21 protein level at 5 uM after 48 hrs by Western blot method relative to beta-actin", "type": "functional"}, "[24]": {"tested_on": "HCT-116", "test": "Induction of apoptosis in human HCT116 cells assessed as necrotic cells at 5 uM after 48 hrs by Annexin-V and dead cell assay (reference value: 0.10%)", "type": "functional"}, "[25]": {"tested_on": "HCT-116", "test": "Cell cycle arrest in human HCT116 cells assessed as accumulation at G2/M phase at 1 uM after 48 hrs (reference value: 21.5%)", "type": "functional"}, "[26]": {"tested_on": "HCT-116", "test": "Induction of apoptosis in human HCT116 cells assessed as late apoptotic cells at 5 uM after 48 hrs by Annexin-V and dead cell assay (reference value: 1.45%)", "type": "functional"}, "[27]": {"tested_on": "HT-29", "test": "Induction of apoptosis in human HT-29 cells assessed as cyclin E protein level at 2.5 uM after 48 hrs by Western blot method relative to beta-actin", "type": "functional"}, "[28]": {"tested_on": "HT-29", "test": "Induction of apoptosis in human HT-29 cells assessed as in p53 protein level at 2.5 uM after 48 hrs by Western blot method relative to beta-actin", "type": "functional"}, "[29]": {"tested_on": "HT-29", "test": "Induction of apoptosis in human HT-29 cells assessed as cyclin E protein level at 10 uM after 48 hrs by Western blot method relative to beta-actin", "type": "functional"}, "[30]": {"tested_on": "HCT-116", "test": "Induction of apoptosis in human HCT116 cells assessed as necrotic cells at 2.5 uM after 48 hrs by Annexin-V and dead cell assay (reference value: 0.10%)", "type": "functional"}, "[31]": {"tested_on": "HT-29", "test": "Cell cycle arrest in human HT-29 cells assessed as accumulation at S phase at 2.5 uM after 48 hrs (reference value: 9.7%)", "type": "functional"}, "[32]": {"tested_on": "HCT-116", "test": "Cell cycle arrest in human HCT116 cells assessed as accumulation at S phase at 10 uM after 48 hrs (reference value: 10.9%)", "type": "functional"}, "[33]": {"tested_on": "HCT-116", "test": "Induction of apoptosis in human HCT116 cells assessed as live cells at 1 uM after 48 hrs by Annexin-V and dead cell assay (reference value: 96.75%)", "type": "functional"}, "[34]": {"tested_on": "HT-29", "test": "Induction of apoptosis in human HT-29 cells assessed as cleaved caspase-3 protein level at 2.5 uM after 48 hrs by Western blot method relative to caspase-3", "type": "functional"}, "[35]": {"tested_on": "HCT-116", "test": "Induction of apoptosis in human HCT116 cells assessed as cleaved caspase-3 protein level at 2.5 uM after 48 hrs by Western blot method relative to caspase-3", "type": "functional"}, "[36]": {"tested_on": "HCT-116", "test": "Induction of apoptosis in human HCT116 cells assessed as cyclin E protein level at 5 uM after 48 hrs by Western blot method relative to beta-actin", "type": "functional"}, "[37]": {"tested_on": "HT-29", "test": "Induction of apoptosis in human HT-29 cells assessed as increase in caspase-3/7 activity at 1 to 10 uM measured after 48 hrs by Caspase-Glo 3/7 assay", "type": "functional, cell-based"}, "[38]": {"tested_on": "HCT-116", "test": "Cytotoxicity against human HCT116 cells assessed as reduction in cell viability by MTT assay", "type": "functional, cell-based"}, "[39]": {"tested_on": "CCD-18Co", "test": "Cytotoxicity against human CCD-18Co cells at 1 to 10 uM after 48 hrs by CytoTox-96 non-radioactive assay", "type": "cell-based"}, "[40]": {"tested_on": "HCT-116", "test": "Induction of apoptosis in human HCT116 cells assessed as caspase-3 protein level at 2.5 uM after 48 hrs by Western blot method relative to beta-actin", "type": "functional"}, "[41]": {"tested_on": "HCT-116", "test": "Induction of apoptosis in human HCT116 cells assessed as in p21 protein level at 5 uM after 48 hrs by Western blot method relative to beta-actin", "type": "functional"}}, "note": "Activity calls are given as the source filed them. The calls are words filed in the database; no cut-off is given here."}
{"smiles": "O=C(OC[C@H]1O[C@@H](OC(=O)c2cc(O)c(O)c(O)c2)[C@H](OC(=O)c2cc(O)c(O)c(O)c2)[C@@H](OC(=O)c2cc(O)c(O)c(O)c2)[C@@H]1OC(=O)c1cc(O)c(O)c(O)c1)c1cc(O)c(O)c(O)c1", "note": "[PENTAGALLOYL GLUCOSE]", "values": [{"measurement": "Activity", "setting": "[1]", "result": 43.9, "unit": "%"}, {"measurement": "fold change (FC)", "setting": "[2]", "result": 0.4}, {"measurement": "Activity", "setting": "[3]", "result": "Active"}, {"measurement": "fold change (FC)", "setting": "[4]", "result": 5.9}, {"measurement": "Activity", "setting": "[5]", "result": 14.8, "unit": "%"}, {"measurement": "Activity", "setting": "[6]", "result": 93.35, "unit": "%"}, {"measurement": "Activity", "setting": "[7]", "result": 14.3, "unit": "%"}, {"measurement": "fold change (FC)", "setting": "[8]", "result": 3}, {"measurement": "Activity", "setting": "[9]", "result": 1, "unit": "%"}, {"measurement": "fold change (FC)", "setting": "[10]", "result": 0.7}, {"measurement": "fold change (FC)", "setting": "[11]", "result": 7}, {"measurement": "fold change (FC)", "setting": "[12]", "result": 6}, {"measurement": "Activity", "setting": "[13]", "result": 3.2, "unit": "%"}, {"measurement": "fold change (FC)", "setting": "[14]", "result": 2.4}, {"measurement": "Activity", "setting": "[15]", "result": "Dose-dependent effect"}, {"measurement": "Activity", "setting": "[16]", "result": 16.3, "unit": "%"}, {"measurement": "fold change (FC)", "setting": "[17]", "result": 1.8}, {"measurement": "Activity", "setting": "[18]", "result": "Dose-dependent effect"}, {"measurement": "fold change (FC)", "setting": "[19]", "result": 0.4}, {"measurement": "Activity", "setting": "[20]", "result": 12.7, "unit": "%"}, {"measurement": "fold change (FC)", "setting": "[21]", "result": 0.7}, {"measurement": "fold change (FC)", "setting": "[22]", "result": 1.6}, {"measurement": "fold change (FC)", "setting": "[23]", "result": 1.8}, {"measurement": "Activity", "setting": "[24]", "result": 0.45, "unit": "%"}, {"measurement": "Activity", "setting": "[25]", "result": 18.1, "unit": "%"}, {"measurement": "Activity", "setting": "[26]", "result": 4.35, "unit": "%"}, {"measurement": "fold change (FC)", "setting": "[27]", "result": 0.9}, {"measurement": "fold change (FC)", "setting": "[28]", "result": 4.4}, {"measurement": "fold change (FC)", "setting": "[29]", "result": 0.1}, {"measurement": "Activity", "setting": "[30]", "result": 0.1, "unit": "%"}, {"measurement": "Activity", "setting": "[31]", "result": 13.4, "unit": "%"}, {"measurement": "Activity", "setting": "[32]", "result": 11.8, "unit": "%"}, {"measurement": "Activity", "setting": "[33]", "result": 98.25, "unit": "%"}, {"measurement": "fold change (FC)", "setting": "[34]", "result": 6}, {"measurement": "fold change (FC)", "setting": "[35]", "result": 1.8}, {"measurement": "fold change (FC)", "setting": "[36]", "result": 0.6}, {"measurement": "Activity", "setting": "[37]", "result": "Active"}, {"measurement": "IC50", "setting": "[38]", "result": 1610, "unit": "nM"}, {"measurement": "Activity", "setting": "[39]", "result": "Non-Toxic"}, {"measurement": "fold change (FC)", "setting": "[40]", "result": 109.9}, {"measurement": "fold change (FC)", "setting": "[41]", "result": 0.7}]}
